Usually Kd stands for the equilibrium constant for the complex coming apart.

No end group written: not given here.

The subject of the first test is human PMNs. As to the kind of experiment: PMN migration in microchemotaxis chambers. The format is cell-based. The conditions noted are these: microchemotaxis chamber, 45 min at 37° C. On the set-up: key to PMN MIGRATION: (+) indicates the peptide induced PMN migration; (−) indicates the peptide did not induce PMN migration above levels seen in controls which contained no chemotactic stimulus. As for the experimental part:
(§1) Assessment of mononuclear phagocyte (mononuclears) and polymorphonuclear leukocyte (PMN) migration. Human peripheral blood monocytes were isolated from the blood of normal healthy volunteers (30). Blood was centrifuged on Hisopaque 1077 (Sigma, St. Louis, Mo.), the mononuclear fraction was obtained, washed twice in Earle's balanced salt solution, resuspended in RPMI 1640 containing human serum (10%; Gemini, Calabasas, Calif.), plated on tissue culture dishes and incubated at 37° C. for 1-2 hrs. Nonadherent cells were removed by washing the plate twice with balanced salt solution, and adherent cells were harvested by incubation with calcium-magnesium free buffer containing EDTA (2 mM) for 15 min at 37° C., followed by extensive washing. PMNs were prepared by centrifugation over Hisopaque 1119 as per the manufacturer's protocol (Sigma). Chemotaxis assays were performed in microchemotaxis chamber (NeuroProbe, Bethesda, Md.) containing Nucleopore polycarbonate membranes (5 μm; Nucleopore, Pleasonton, Calif.). Mononuclears or PMNs were suspended in RPMI 1640 containing fetal bovine serum (1%) and 10^4 cells were added per well to the upper chamber. The chemotactic stimulus was added to the indicated chamber, and assays were performed in quadruplicate over a 3 hr or 45 min incubation period at 37° C., with mononuclear cells or PMNs, respectively, after which non-migrating cells were removed, membranes were fixed in methanol, migrating cells were visualized with Wright's stain. Cells in nine high-power fields were counted, and the mean and standard error of the mean (SEM) were determined.
(§2) Cell migration was studied by adding MPs or PMNs (10^4 cells/well) resuspended in RPMI 1640 with fetal calf serum (1%; Gemini) to the upper wells of a microchemotaxis chamber (Neuro Probe, Bethesda, Md.) containing Nucleopore polycarbonate membranes (5 μm, Nucleopore, Pleasanton Calif.), as described (7,29-30). The chemotactic stimulus was placed in the upper or lower chamber, as indicated, and cells were allowed to migrate for 3 hrs (for MPs) or 45 min (for PMNs) at 37° C. Following removal of non-migrating cells, membranes were fixed in methanol and migrating cells were visualized with Wright's stain. Assays were performed in quadruplicate, and cells were counted in nine high-power fields in each case (mean±SEM is shown in the figures).
(§3) Migration of PMNs and MPs—Migration was studied using cells (10^4 and 10^3 cells/well form PMNs and MPs, respectively) resuspended in RPMI 1640 with fetal calf serum (1%) added to the upper wells of a microchemotaxis chamber (Neuro Probe, Bethesda, Md.) containing Nucleopore polycarbonate membranes (5 um, Nucleopor, Pleasanton, Calif.), as described (13, 22, 35). The stimulus was placed in the upper or lower chamber, as indicated, and the cells were allowed to migrate for 3 h (for MPs) or 45 min (for PMNs) at 37° C. Following removal of nonmigrating cells, membranes were fixed in methanol, and migrating cells were visualized with Wright's stain. Assays were performed in quadruplicate, and cells were counted in […] high-power fields in each case (mean±S.E. is shown in the figures).
Consider “IRKDMDKVETFLRIVQ [irrelevant peptide derived from growth hormone, reference compound]”, for which the “Induction of PMN migration (chemotaxis)” value was “no chemotaxis was observed”.

Consider “CRAQTMANSGIK [peptide derived from the C-terminal portion of EMAP II, reference compound]”, for which the “Induction of PMN migration (chemotaxis)” value is reported as “no chemotaxis was observed”.

As for “AVLPRSAKELRL [peptide derived from the ELR-region of IL-8, residues #23-34, reference compound]”, the “Induction of PMN migration (chemotaxis)” value is “no chemotaxis was observed”.

Still in this test, the particulars now being: peptides 100 pM in each case.
With ASRLDL, the “PMN MIGRATION” value is recorded as “−”.

In the case of RIGRIVT, the “PMN MIGRATION” value was “+”.

Consider ASRLDLRIGRIVTAK, for which the “PMN MIGRATION” value was “+”.

Turning to RIGRAVT, the “PMN MIGRATION” value was “−”.

RIGRIVTAKY: the “PMN MIGRATION” value is “+”.

Consider LRIGRIVTAKY, for which the “PMN MIGRATION” value is given as “+”.

Take ASRLDLRIGC*IVTAK: the “PMN MIGRATION” value is “+”.

Turning to AIGRIVT, the “PMN MIGRATION” value is “+”.

In the case of RIGRIIT, the “PMN MIGRATION” value is reported as “+”.

The next test deals with ECs. As to the kind of experiment: Pilot binding studies using ECs. The settings on record: data not shown.
With 125I-RIGRIVTAKY (also: 125I label), the “Specific binding to ECs” value is “specific binding”.

A further test deals with human peripheral blood monocytes (MPs). Kind of test: Mononuclear phagocyte migration in microchemotaxis chambers. The class given is cell-based. The settings on record: microchemotaxis chamber, 3 hrs at 37° C. As for the experimental part: as §1, §2, §3
In the case of “IRKDMDKVETFLRIVQ [irrelevant peptide derived from growth hormone, reference compound]”, the “Induction of MP (mononuclear cell) migration (chemotaxis)” value (“Induction of MP” for short) is “inactive”.

As to “CRAQTMANSGIK [peptide derived from the C-terminal portion of EMAP II, reference compound]”, the “Induction of MP” value is “inactive”.

As for “AVLPRSAKELRL [peptide derived from the ELR-region of IL-8, residues #23-34, reference compound]”, the “Induction of MP” value is “inactive”.

The next test relates to human PMNs. As to the kind of experiment: [Ca2+]i measurement in PMNs (fura-2).
Conditions: not given
The format is cell-based. As for the experimental part:
(§4) [Ca^2+1]i measurements. PMNs or MPs (2×10^7 cells in each case) were incubated with fura-2 AM (1 μM) and pluronic detergent (0.02%) for 12 min at room temperature, diluted sixfold, and incubated for a further 30 min at room temperature to allow for complete hydrolysis of the dye. Cells were then resuspended in HEPES-buffered saline at 5×10^5 cells/ml (32). For experiments using MPs, sulfinpyrazone (0.5 mM) was included at all steps to minimize both dye sequestration into intracellular organelles and dye efflux (33). Fluorescence of fura-2 was monitored at 37° C. in a thermostatically-controlled cuvette installed in a Perkin Elmer Model 650-40 fluorescense spectrophotometer. Calibration of [Ca^2+]i was performed as described (34).
(§5) For determination of [Ca^2+] in PMSs and MPs, cells (2×10^7 in each case) were incubated with fura-2 AM (1 um) and pluronci detergent (0.02%) at room temperature, diluted 6-fold, and incubated for a further 30 min at room temperature to allow for complete hydrolysis of the dye. Cells were then resuspended in HEPES-buffered saline at 5×10^5 cells/ml (32). For MPs, sulfinpyrazone (0.5 mM) was included at all steps to minimize both dye sequestration into intracellular organelles and dye efflux (33). Fluorescence of fura-2 was monitored at 37° C. in a thermostatically controlled cuvette installed in a Perkin Elmer model 650-40 fluorescence spectrophotometer. Calibration of [Ca^2+] was performed as described (34).
On to ASRLDL, for which the “Rise in [Ca2+]i in PMNs” value was “inactive”.

Consider RIGRIVT, for which the “Rise in [Ca2+]i in PMNs” value is “did not promote enhanced [Ca^2+]i”.

For the substance RIGRIVTAKY, the “Rise in [Ca2+]i in PMNs” value was “did not promote enhanced [Ca^2+]i”.

For the next test, the system named is human MPs. Kind of test: Radioligand binding of 125I-[…] to MPs. The conditions noted are these: 4° C. As for the experimental part:
Radioligand binding studies were performed on human MPs plated in 96-well plates (5-6×10^4 cells/well). Cells were washed twice with Hanks balanced salt solution, and then Dulbecco's Modified Eagle Medium containing HEPES (25 mM; pH 7.4), penicillin/streptomycin (50 U/ml; 50 μg/ml), and bovine serum albumin-fatty acid free (0.5%; Sigma) were added (0.1 ml/well). Cultures were incubated at 4° C. for 2 hrs with ^125I-[…] alone or in the presence of unlabelled peptide/protein. Each well was washed four times over a period of 20 sec, and cell-associated radioactivity was eluted by an acidic buffer (HCl, 0.1 M, pH 2; NaCl, 0.1 M) at 4° C. for 5 min. During the elution period, there was no detachment of cells from the growth substrate. The conditions for incubation and washing used in the binding studies shown in FIG. 3 (2 hrs at 4° C.) were […] to allow binding of ^125I-[…] to reach an apparent maximum, even at the lowest tracer concentrations, and to remove unbound material by washing quickly so that <10% of the cell-bound radioactivity dissociated.
Take 125I-RIGRIVTAKY (also: 125I label): the “N, binding sites” value is 8.3±1.2×10^3 molecules of peptide bound per cell.

Still in this test, the particulars now being: excess / increasing concentrations of unlabelled competitor.
For the substance ASRLDL, the “Competition for binding of 125I-RIGRIVTAKY to MPs by unlabelled peptide/protein” value (“Competition … by unlabelled peptide/protein” below) is “had no effect”.

As for RIGRIVT, the “Competition … by unlabelled peptide/protein” value is “blocked”.

As to RICRIVTAK, the “Competition … by unlabelled peptide/protein” value is listed as “inhibition”.

Consider ASRLDLRTGRIVT, for which the “Competition … by unlabelled peptide/protein” value is “blocked”.

Consider RIGRAVT, for which the “Competition … by unlabelled peptide/protein” value is given as “had no effect”.

As for “CRAQTMANSGIK [peptide derived from the C-terminal portion of EMAP II, reference compound]”, the “Competition … by unlabelled peptide/protein” value is listed as “had no effect”.

The same test, now with this note: read-out: Kd of specific binding to MPs (one-site model); 4° C.
As for 125I-RIGRIVTAKY (also: 125I label), the dissociation constant Kd was found to be 0.19 ± 0.11 nM.

Another test relates to human MPs. Kind of test: [Ca2+]i measurement in MPs (fura-2). The format is cell-based.
Conditions: not given
The protocol:
as §4
as §5, with “Calibration of [Ca^2+] was performed as described (34).” left out
In the case of RIGRIVT, the “Rise in [Ca2+]i in MPs” value is “insufficient to promote increases in [Ca^2+]i”.

Values taken from US6734168B2, “Endothelial monocyte activating polypeptide II: a mediator which activates host response” (The Trustees of Columbia University in the City of New York, priority 1993, dated 2004).
